The assay has as its target T1, human TLR9 (hTLR9) (Homo sapiens, UniProt Q9NR96).
T1 construct: expressed in transfected cells
T1 sequence (Q9NR96 26-1032): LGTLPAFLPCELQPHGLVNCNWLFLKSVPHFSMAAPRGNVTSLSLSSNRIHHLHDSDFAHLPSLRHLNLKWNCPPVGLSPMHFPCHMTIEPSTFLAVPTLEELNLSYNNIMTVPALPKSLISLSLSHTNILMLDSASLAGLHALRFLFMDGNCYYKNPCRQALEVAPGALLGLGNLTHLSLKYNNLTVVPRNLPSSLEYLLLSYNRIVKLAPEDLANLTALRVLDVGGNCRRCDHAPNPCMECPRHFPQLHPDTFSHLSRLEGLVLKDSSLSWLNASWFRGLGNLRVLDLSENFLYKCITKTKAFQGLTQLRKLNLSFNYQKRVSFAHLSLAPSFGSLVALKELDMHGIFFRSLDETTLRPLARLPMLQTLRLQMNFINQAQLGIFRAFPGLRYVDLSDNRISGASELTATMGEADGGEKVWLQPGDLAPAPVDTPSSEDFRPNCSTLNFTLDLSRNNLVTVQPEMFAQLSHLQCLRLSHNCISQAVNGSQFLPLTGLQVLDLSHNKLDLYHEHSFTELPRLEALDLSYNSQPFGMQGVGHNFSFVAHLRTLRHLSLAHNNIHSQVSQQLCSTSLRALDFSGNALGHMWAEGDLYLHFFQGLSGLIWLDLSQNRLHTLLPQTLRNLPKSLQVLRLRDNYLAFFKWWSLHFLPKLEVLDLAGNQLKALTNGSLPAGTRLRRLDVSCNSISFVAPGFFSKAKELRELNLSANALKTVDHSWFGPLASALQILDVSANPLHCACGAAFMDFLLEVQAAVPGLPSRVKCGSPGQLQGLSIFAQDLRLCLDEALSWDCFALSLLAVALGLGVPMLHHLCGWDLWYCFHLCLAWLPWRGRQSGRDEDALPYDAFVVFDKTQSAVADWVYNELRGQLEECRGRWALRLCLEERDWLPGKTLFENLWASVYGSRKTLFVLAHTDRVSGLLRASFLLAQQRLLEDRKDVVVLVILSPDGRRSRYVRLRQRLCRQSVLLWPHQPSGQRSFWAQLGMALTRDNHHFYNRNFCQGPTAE
Put plainly: Antagonist screen, hTLR9-NFκB-293 cells, 6× NF-κB-luciferase reporter, with EC50 of CpG ODN 2006. It counts as cell-based. The conditions noted are these: compound at 0.5, 5, 50 μg/ml; EC50 concentration of CpG ODN 2006; 16 h; NF-κB-luciferase. A digest of the protocol:
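Luciferase fold induction was compared with the ligand-alone baseline, and antagonism was scored by the lowest concentration giving clear down-regulation.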
In the case of `O=C(O)c1cccc2c1/C(=N/O)c1ccccc1-2` [compound 918], the “hTLR9 (inhibitory effect, antagonist score)” value is “— (compounds for which there was no clear down regulation even at 50 μg/ml)”.

On to `CCCCOC(=O)c1cc([N+](=O)[O-])cc2c1-c1cc(CO)c([NH+]([O-])O)cc1C2=C(C#N)C#N` (centres unmarked) [compound 939], for which the “hTLR9 (inhibitory effect, antagonist score)” value was 11 (compounds for which there was clear down regulation only at 50 μg/ml).

For `O=C(O)c1cccc2c1-c1ccccc1/C2=N/Nc1ccc([N+](=O)[O-])cc1[N+](=O)[O-]` [compound 944], the “hTLR9 (inhibitory effect, antagonist score)” value was “— (compounds for which there was no clear down regulation even at 50 μg/ml)”.

`C=CCc1ccccc1OC1(c2ccccc2)OC(=O)c2ccccc21` (centres unmarked) [compound 957]: the “hTLR9 (inhibitory effect, antagonist score)” value is 12 (compounds for which there was clear down regulation at 5 μg/ml and 50 μg/ml).

In the case of `COC(=O)c1ccc(C2CC(=O)Nc3c2ccc2ccccc32)cc1` (centres unmarked) [compound 965], the “hTLR9 (inhibitory effect, antagonist score)” value is reported as “— (compounds for which there was no clear down regulation even at 50 μg/ml)”.

With `O=C(O)c1ccc(C2(c3ccc(C(=O)O)cc3)OC(=O)c3ccccc32)cc1` [compound 970], the “hTLR9 (inhibitory effect, antagonist score)” value is on record as 11 (compounds for which there was clear down regulation only at 50 μg/ml).

Turning to `Cc1cc(OC(=O)C2C3CCCCC32)c(C(C)C)cc1C1(c2cc(C(C)C)c(OC(=O)C3C4CCCCC43)cc2C)OC(=O)c2ccccc21` (centres unmarked) [compound 974], the “hTLR9 (inhibitory effect, antagonist score)” value is on record as “— (compounds for which there was no clear down regulation even at 50 μg/ml)”.

As for `CCN(CC)CCCN(CC(=O)C1c2ccc(Cl)cc2NC(=O)c2ccccc21)C(=O)c1ccccc1` (centres unmarked) [compound 1013], the “hTLR9 (inhibitory effect, antagonist score)” value is 11 (compounds for which there was clear down regulation only at 50 μg/ml).

Turning to `O=C1c2ccccc2C(=O)c2c1ccc1c(=O)n(C3CCCCC3)[nH]c21` [compound 1015], the “hTLR9 (inhibitory effect, antagonist score)” value is given as 11 (compounds for which there was clear down regulation only at 50 μg/ml).

For `CCOC(=O)c1cc([N+](=O)[O-])cc2c1-c1ccc([N+](=O)[O-])cc1C2=C(C#N)C#N` [compound 1039], the “hTLR9 (inhibitory effect, antagonist score)” value was 11 (compounds for which there was clear down regulation only at 50 μg/ml).

Regarding `O=C1c2ccccc2C(=O)c2c1ccc1c(=O)n(-c3ccccc3)[nH]c21` [compound 1042], the “hTLR9 (inhibitory effect, antagonist score)” value is 12 (compounds for which there was clear down regulation at 5 μg/ml and 50 μg/ml).

Regarding `O=C(c1cccc2c1-c1ccccc1/C2=N\O)N1CCCCC1` [compound 1050], the “hTLR9 (inhibitory effect, antagonist score)” value was 12 (compounds for which there was clear down regulation at 5 μg/ml and 50 μg/ml).

For the compound `NC(=O)c1cccc2c1-c1ccccc1C2` [compound 1132], the “hTLR9 (inhibitory effect, antagonist score)” value is listed as “— (compounds for which there was no clear down regulation even at 50 μg/ml)”.

On to `NC(=O)c1cc(N)c2c(c1N)C(=O)c1ccccc1C2=O` [compound 1158], for which the “hTLR9 (inhibitory effect, antagonist score)” value is on record as 11 (compounds for which there was clear down regulation only at 50 μg/ml).

Consider `CC(=O)Oc1cc(C)c(C2(c3cc(C(C)C)c(OC(C)=O)cc3C)OC(=O)c3ccccc32)cc1C(C)C` [compound 1161], for which the “hTLR9 (inhibitory effect, antagonist score)” value was 12 (compounds for which there was clear down regulation at 5 μg/ml and 50 μg/ml).

Turning to `COC(=O)c1cccc(C(O)(c2ccccc2)c2ccccc2)c1S(=O)(=O)C(C)(C)C` [compound 1187], the “hTLR9 (inhibitory effect, antagonist score)” value is given as “— (compounds for which there was no clear down regulation even at 50 μg/ml)”.

On to `CCOCCOC(=O)c1cc([N+](=O)[O-])cc2c1-c1c(cc([N+](=O)[O-])cc1[N+](=O)[O-])C2=C(C#N)C#N` [compound 1241], for which the “hTLR9 (inhibitory effect, antagonist score)” value is “— (compounds for which there was no clear down regulation even at 50 μg/ml)”.

Take `CC1CCN(C(=O)c2cccc3c2-c2ccccc2C3=O)CC1` [compound 1243]: the “hTLR9 (inhibitory effect, antagonist score)” value was “— (compounds for which there was no clear down regulation even at 50 μg/ml)”.

For `Cc1cccc(C2(c3cccc(C)c3)OC(=O)c3ccccc32)c1` [compound 1308], the “hTLR9 (inhibitory effect, antagonist score)” value was 11 (compounds for which there was clear down regulation only at 50 μg/ml).

On to `COCCCNC(=O)c1ccc2c(c1N)C(=O)c1ccccc1C2=O` [compound 1337], for which the “hTLR9 (inhibitory effect, antagonist score)” value is 12 (compounds for which there was clear down regulation at 5 μg/ml and 50 μg/ml).

Consider `O=C1Nc2ccccc2Oc2ccc([N+](=O)[O-])cc21` [compound 1352], for which the “hTLR9 (inhibitory effect, antagonist score)” value is 11 (compounds for which there was clear down regulation only at 50 μg/ml).

Flunarizinehydrochloride [compound 312]: the “hTLR9 (inhibitory effect, antagonist score)” value is 12 (compounds for which there was clear down regulation at 5 μg/ml and 50 μg/ml).

Turning to Maprotilinehydrochloride [compound 346], the “hTLR9 (inhibitory effect, antagonist score)” value is 11 (compounds for which there was clear down regulation only at 50 μg/ml).

Metixene hydrochloride [compound 491]: the “hTLR9 (inhibitory effect, antagonist score)” value is 12 (compounds for which there was clear down regulation at 5 μg/ml and 50 μg/ml).

Consider “Prochlorperazinedimaleate [compound 399]”, for which the “hTLR9 (inhibitory effect, antagonist score)” value is 12 (compounds for which there was clear down regulation at 5 μg/ml and 50 μg/ml).

For the compound “Trifluoperazinedihydrochloride [compound 313]”, the “hTLR9 (inhibitory effect, antagonist score)” value is 11 (compounds for which there was clear down regulation only at 50 μg/ml).

For the origin of these results see patent publication US7410975B2, “Small molecule toll-like receptor (TLR) antagonists” (Coley Pharmaceutical Group, Inc., priority 2003, dated 2008).
